The values below come from patent US10301299B2, “Glycosidase inhibitors” (Merck Patent GmbH, priority 2013, dated 2019).

One may read the EC50 as the midpoint of the concentration-response curve. Low values mean an effect from little substance, high ones a need for much substance. In general, IC50 refers to the concentration at which inhibition is half-maximal.

Experiment [1] deals with B35 rat neuroblastoma cells. Nature of the experiment: Cellular O-GlcNAcylation assay (tau O-GlcNAc S400, ICC). As to conditions: Neuroblastoma cell, 16 h, tau O-GlcNAcylated at serine 400. It is filed as cell-based. As for the experimental part:
The following day cells were treated with appropriate concentration of a solution of inhibitor for 16 h at 37° C. in 5% CO2. Cells were fixed in 100 μl 4% paraformaldehyde for 15 min at room temperature, followed by three washes in PBS buffer. The cells were then permeabilized with 0.1% Triton X-100 for 60 min at room temperature. After three washes in PBS the cells were blocked with 10% goat serum containing 1% BSA in PBS buffer for two hours at room temperature. The cells were then incubated with a monoclonal rabbit antibody specific for tau O-GlcNAcylated at serine 400 (Epitomics) at a 1:1000 dilution overnight at 4° C. […] To calculate an EC50 the total peak intensity was plotted against the concentration of inhibitor to produce a sigmoidal dose response curve.

The target of a further experiment is T1, His-Tagged hOGA (Homo sapiens, UniProt O60502).
T1 sequence (O60502 1-916): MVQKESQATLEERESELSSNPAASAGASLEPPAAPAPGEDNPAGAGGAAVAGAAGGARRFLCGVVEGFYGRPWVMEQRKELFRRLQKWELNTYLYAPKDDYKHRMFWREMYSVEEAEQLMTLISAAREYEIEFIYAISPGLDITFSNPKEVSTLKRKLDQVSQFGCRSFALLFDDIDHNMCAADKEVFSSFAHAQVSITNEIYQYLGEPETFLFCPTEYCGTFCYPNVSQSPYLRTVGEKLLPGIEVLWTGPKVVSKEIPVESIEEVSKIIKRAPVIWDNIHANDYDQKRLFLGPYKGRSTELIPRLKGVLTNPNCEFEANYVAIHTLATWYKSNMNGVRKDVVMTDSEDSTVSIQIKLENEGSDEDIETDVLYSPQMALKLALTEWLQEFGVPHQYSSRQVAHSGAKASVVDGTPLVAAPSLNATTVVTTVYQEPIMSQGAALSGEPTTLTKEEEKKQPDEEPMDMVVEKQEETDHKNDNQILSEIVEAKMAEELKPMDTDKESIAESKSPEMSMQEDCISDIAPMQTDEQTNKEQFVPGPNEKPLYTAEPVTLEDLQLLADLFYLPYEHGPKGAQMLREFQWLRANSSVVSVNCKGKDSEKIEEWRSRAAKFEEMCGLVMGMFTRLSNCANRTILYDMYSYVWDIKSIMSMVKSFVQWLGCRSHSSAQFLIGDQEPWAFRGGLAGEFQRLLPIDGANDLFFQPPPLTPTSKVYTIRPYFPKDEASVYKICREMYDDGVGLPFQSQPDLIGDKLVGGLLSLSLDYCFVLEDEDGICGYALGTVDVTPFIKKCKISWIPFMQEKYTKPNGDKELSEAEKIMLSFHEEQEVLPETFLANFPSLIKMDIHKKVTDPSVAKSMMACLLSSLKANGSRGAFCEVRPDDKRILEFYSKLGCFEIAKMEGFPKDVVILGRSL
Nature of the experiment: Human O-GlcNAcase enzyme inhibition assay. It is filed as biochemical. As for the experimental part: The following reaction components were added to a final volume of 10 μL in Mcllvaine's Buffer (pH 6.5): 20 nM His-Tagged hOGA and 10 μM Fluorescein mono-beta-D-(2-deoxy-2-N-acetyl) glucopyranoside (FL-GlcNAc; Marker Gene Technologies Inc, Part # M1485). […] The amount of fluorescence measured was plotted against the concentration of inhibitor to produce a sigmoidal dose response curve, from which an IC50 was calculated.

Where [2] appears, read: 20 nM His-Tagged hOGA, 10 μM FL-GlcNAc, pH 6.5, 60 min, read-out: hOGA enzyme inhibition (IC50).

Like-named read-outs stand apart in the source and are kept apart here.

Consider `CC(=O)Nc1ncc(CN2CCC(c3ccc(C(=O)O)cc3)CC2)s1` [Compound 45, 4-(1-((2-acetamidothiazol-5-yl)methyl)piperidin-4-yl)benzoic acid], for which the EC50 in experiment [1] was in the range of 1 to 10 µM. Moreover, on His-Tagged hOGA (setting [2]), the IC50 fell in the range of 0.2 to 1 µM.

Take `CC(=O)Nc1ncc(CN2CCC(c3cccc(O)c3)CC2)s1` [Compound 39, N-(5-((4-(3-hydroxyphenyl)piperidin-1-yl)methyl)thiazol-2-yl)acetamide]: the concentration for a half-maximal effect (EC50) in experiment [1] lay within 0.2 to 1 µM. In addition, the half-maximal inhibitory concentration (IC50) on His-Tagged hOGA (setting [2]) was in the range of 0.2 to 1 µM.

In experiment [1], `CC(=O)Nc1ncc(CN2CCC(C(C)C)CC2)s1` [Compound 26, N-[5-(4-isopropylpiperidin-1-ylmethyl)thiazol-2-yl]-acetamide] came in with an EC50 of 1 to 10 µM. Further, the IC50 on His-Tagged hOGA (setting [2]) is under 0.2 µM.

For the compound `CC(=O)Nc1ncc(CN2CCCCC2)s1` [Compound 25, N-(5-piperidin-1-ylmethyl-thiazol-2-yl)-acetamide], the EC50 in experiment [1] was in the range of 0.2 to 1 µM. In addition, the 50% inhibitory concentration (IC50) at His-Tagged hOGA (setting [2]) lay within 1 to 10 µM.

For `CC(=O)Nc1ncc(CN(C)CCCc2ccccc2)s1` [Compound 21, N-(5-{[methyl-(3-phenyl-propyl)-amino]-methyl}-thiazol-2-yl)-acetamide], in experiment [1], the concentration giving a half-maximal response (EC50) was 1 to 10 µM. Also, the IC50 on His-Tagged hOGA (setting [2]) is under 0.2 µM.

Compound `CC(=O)Nc1ncc(CN2CCC(c3ccccc3C)CC2)s1` [Compound 43, N-(5-((4-(o-tolyl)piperidin-1-yl)methyl)thiazol-2-yl)acetamide] yielded an EC50 in experiment [1] of 0.2 to 1 µM. Besides, the IC50 on His-Tagged hOGA (setting [2]) was 1 to 10 µM.

As to `CC(=O)Nc1ncc(CN2CCC(c3ccc(O)cc3)CC2)s1` [Compound 38, N-(5-((4-(4-hydroxyphenyl)piperidin-1-yl)methyl)thiazol-2-yl)acetamide], the EC50 in experiment [1] fell in the range of 0.2 to 1 µM. Besides, the IC50 at His-Tagged hOGA (setting [2]) was under 0.2 µM.

For `COc1ccc(C2CCN(Cc3cnc(NC(C)=O)s3)CC2)cc1` [Compound 16, N-(5-((4-(4-methoxyphenyl)piperidin-1-yl)methyl)thiazol-2-yl)acetamide], the EC50 in experiment [1] is 1 to 10 µM. Moreover, the IC50 at His-Tagged hOGA (setting [2]) was under 0.2 µM.

For `CC(=O)Nc1ncc(CN2CCN(c3ccccc3)CC2)s1` [Compound 19, N-[5-(4-phenyl-piperazin-1-ylmethyl)-thiazol-2-yl]-acetamide], the EC50 in experiment [1] was in the range of 1 to 10 µM. Further, the IC50 at His-Tagged hOGA (setting [2]) is 0.2 to 1 µM.

In experiment [1], `COC(=O)Nc1ncc(CN2CCC(c3ccccc3)CC2)s1` [Compound 2, [5-(4-Phenyl-piperidin-1-ylmethyl)-thiazol-2-yl]-carbamic acid methyl ester] gave an EC50 of over 10 µM. The IC50 on His-Tagged hOGA (setting [2]) lay in the range of 1 to 10 µM.

`CC(=O)Nc1ncc(CN2CCCC(c3ccccc3)C2)s1` (stereo not drawn) [Compound 29, N-(5-((3-phenylpiperidin-1-yl)methyl)thiazol-2-yl)acetamide] returned a half-maximal effective concentration (EC50) in experiment [1] of 1 to 10 µM. The IC50 on His-Tagged hOGA (setting [2]) is under 0.2 µM.

As for `CC(=O)Nc1ncc(CN2CCC(F)(c3ccccc3)CC2)s1` [Compound 41, N-[5-(4-fluoro-4-phenyl-piperidin-1-ylmethyl)-thiazol-2-yl]-acetamide], the EC50 in experiment [1] is 1 to 10 µM. At His-Tagged hOGA (setting [2]), the half-maximal inhibitory concentration (IC50) lay within 1 to 10 µM.

`CC(=O)Nc1ncc(C(C)N2CCC(c3ccccc3)CC2)s1` (stereo not drawn) [Compound 40, N-(5-(1-(4-phenylpiperidin-1-yl)ethyl)thiazol-2-yl)acetamide] yielded an EC50 in experiment [1] of 0.2 to 1 µM. Moreover, the IC50 at His-Tagged hOGA (setting [2]) lay in the range of 0.2 to 1 µM.

`CC(=O)Nc1ncc(CN2CCC(Cc3ccccc3)CC2)s1` [Compound 28, N-(5-((4-benzylpiperidin-1-yl)methyl)thiazol-2-yl)acetamide] gave an EC50 in experiment [1] of under 0.2 µM. On His-Tagged hOGA, this compound came in with an IC50 of under 0.2 µM.

`CC(=O)Nc1ncc(CNCCCc2ccccc2)s1` [Compound 20, N-{5-[(3-phenyl-propylamino)-methyl]-thiazol-2-yl}-acetamide]: in experiment [1], the EC50 lay in the range of 1 to 10 µM. The IC50 on His-Tagged hOGA (setting [2]) lay within 0.2 to 1 µM.

Turning to `CC(=O)Nc1ncc(CN2CCC(c3ccccc3F)CC2)s1` [Compound 30, N-(5-((4-(2-fluorophenyl)piperidin-1-yl)methyl)thiazol-2-yl)acetamide], the EC50 in experiment [1] fell in the range of 0.2 to 1 µM. For the same compound, the IC50 at His-Tagged hOGA (setting [2]) is 0.2 to 1 µM.

Compound `CC(=O)Nc1ncc(CN2CCC(c3ccccc3)CC2)s1` [Compound 1, N-(5-((4-phenylpiperidin-1-yl)methyl)thiazol-2-yl)acetamide] yielded an EC50 in experiment [1] of 0.2 to 1 µM. Besides, the IC50 at His-Tagged hOGA (setting [2]) is under 0.2 µM.

In turn, `CC(=O)Nc1ncc(CN2CCC(C3CCCCC3)CC2)s1` [Compound 27, N-(5-((4-cyclohexylpiperidin-1-yl)methyl)thiazol-2-yl)acetamide] yielded an EC50 in experiment [1] of under 0.2 µM. The IC50 at His-Tagged hOGA (setting [2]) was under 0.2 µM.

For `CC(=O)Nc1ncc(CN2CCC(c3ccc(C#N)cc3)CC2)s1` [Compound 36, N-(5-((4-(4-cyanophenyl)piperidin-1-yl)methyl)thiazol-2-yl)acetamide], the EC50 in experiment [1] was 0.2 to 1 µM. Moreover, at His-Tagged hOGA (setting [2]), the IC50 lay within 0.2 to 1 µM.

Regarding `COc1cccc(C2CCN(Cc3cnc(NC(C)=O)s3)CC2)c1` [Compound 32, N-(5-((4-(3-methoxyphenyl)piperidin-1-yl)methyl)thiazol-2-yl)acetamide], the EC50 in experiment [1] was in the range of 0.2 to 1 µM. On His-Tagged hOGA (setting [2]), the IC50 was under 0.2 µM.

In experiment [1], `CC(=O)Nc1ncc(CN2CCC(c3ccc(F)cc3)CC2)s1` [Compound 42, N-(5-((4-(4-fluorophenyl)piperidin-1-yl)methyl)thiazol-2-yl)acetamide] gave an EC50 of 0.2 to 1 µM. In addition, the IC50 at His-Tagged hOGA (setting [2]) lay within 0.2 to 1 µM.

In experiment [1], `CC(=O)Nc1ncc(CN2CCC(c3ccccc3C#N)CC2)s1` [Compound 35, N-(5-((4-(2-cyanophenyl)piperidin-1-yl)methyl)thiazol-2-yl)acetamide] returned an EC50 of 0.2 to 1 µM. In addition, the IC50 on His-Tagged hOGA (setting [2]) lay within 1 to 10 µM.

On to `CC(=O)Nc1ncc(CN2CCC(c3ccccc3O)CC2)s1` [Compound 37, N-(5-((4-(2-hydroxyphenyl)piperidin-1-yl)methyl)thiazol-2-yl)acetamide], for which the EC50 in experiment [1] was under 0.2 µM. The half-inhibitory concentration (IC50) on His-Tagged hOGA (setting [2]) lay in the range of 0.2 to 1 µM.

As for `CC(=O)Nc1ncc(CN2CC(c3ccccc3)C2)s1` [Compound 22, N-[5-(3-phenyl-azetidin-1-ylmethyl)-thiazol-2-yl]-acetamide], the EC50 in experiment [1] is 1 to 10 µM. Further, at His-Tagged hOGA (setting [2]), the IC50 fell in the range of 0.2 to 1 µM.

The compound `CC(=O)Nc1ncc(CN2CCC(c3ccc(C)cc3)CC2)s1` [Compound 14, N-(5-((4-(p-tolyl)piperidin-1-yl)methyl)thiazol-2-yl)acetamide] registered a concentration for a half-maximal effect (EC50) in experiment [1] of 0.2 to 1 µM. Moreover, the IC50 on His-Tagged hOGA (setting [2]) was under 0.2 µM.

`COc1ccccc1C1CCN(Cc2cnc(NC(C)=O)s2)CC1` [Compound 33, N-(5-((4-(2-methoxyphenyl)piperidin-1-yl)methyl)thiazol-2-yl)acetamide]: the EC50 in experiment [1] lay in the range of 0.2 to 1 µM. The IC50 at His-Tagged hOGA (setting [2]) lay in the range of 0.2 to 1 µM.

In turn, `CC(=O)Nc1ncc(CN2CCC(c3cccc(C)c3)CC2)s1` [Compound 31, N-(5-((4-(m-tolyl)piperidin-1-yl)methyl)thiazol-2-yl)acetamide] had an EC50 in experiment [1] of under 0.2 µM. Also, the IC50 on His-Tagged hOGA (setting [2]) is under 0.2 µM.
